Reference: patent US20220030867A1 (priority 2018, published 2022)

Tests used:
[1] = tested on: Fusarium culmorum; experiment: whole plant or invertebrate; assay type: in vivo, Fusarium culmorum on wheat spikelets cv. Monsun; details: in Triticum aestivum, read-out: control of Fusarium culmorum
[2] = tested on: Magnaporthe grisea (Pyricularia oryzae); experiment: microbe, parasite or virus in culture; assay type: cell-based; details: read-out: control of Magnaporthe grisea
[3] = tested on: Magnaporthe grisea (Pyricularia oryzae); experiment: whole plant or invertebrate; assay type: in vivo, Magnaporthe grisea on rice leaf segments cv. Ballila; details: foliar, read-out: control of Magnaporthe grisea
[4] = tested on: Sclerotinia sclerotiorum; experiment: Sclerotinia sclerotiorum / liquid culture (cottony rot); assay type: cell-based; details: growth inhibition photometrically 3-4 days after application, vs untreated control
Protocol: Sclerotinia sclerotiorum/Liquid Culture (Cottony Rot)
(§1) Mycelia fragments of a newly grown liquid culture of the fungus are directly mixed into nutrient broth (Vogels broth). After placing a (DMSO) solution of test compound into a microtiter plate (96-well format) the nutrient broth containing the fungal material is added. The test plates are incubated at 24° C. and the inhibition of growth is determined photometrically 3-4 days after application.

[5] = tested on: Botryotinia fuckeliana (Botrytis cinerea); experiment: Botryotinia fuckeliana (Botrytis cinerea) / liquid culture (gray mould); assay type: cell-based; details: growth inhibition photometrically 3-4 days after application, vs untreated control
Protocol: Botryotinia fuckeliana (Botrytis cinerea)/Liquid Culture (Gray Mould)
as §1, with “Conidia” for “Mycelia fragments of a newly grown liquid culture”, “fungus from cryogenic storage” for “fungus”, “format),” for “format)”, “spores” for “material”

[6] = tested on: Glomerella lagenarium (Colletotrichum lagenarium); experiment: Glomerella lagenarium (Colletotrichum lagenarium) / liquid culture (anthracnose); assay type: cell-based; details: Colletotrichum orbiculare, growth inhibition photometrically 3-4 days after application, vs untreated control
Protocol: Conidia of the fungus from cryogenic storage are directly mixed into nutrient broth (PDB potato dextrose broth). After placing a (DMSO) solution of test compound into a microtiter plate (96-well format), the nutrient broth containing the fungal spores is added. The test plates are incubated at 24° C. and the inhibition of growth is measured photometrically 3-4 days after application.

Structure (SMILES) | pest or weed control at 200 ppm [1] [%] | inhibition of growth at 200 ppm [2] [%] | pest or weed control at 200 ppm [3] [%] | melting point [°C] | further results
C#CCC(C)(Cc1ccccc1)C(=O)Nc1cc2cccc(F)c2nc1C (centres unmarked) [Compound E-2, 2-benzyl-N-(8-fluoro-2-methyl-3-quinolyl)-2-methyl-pent-4-ynamide] | ≥ 80 | ≥ 80 | ≥ 80 |  | 
C#CCC(C)(Cc1ccccc1)C(=O)Nc1cnc2c(F)cccc2c1C (centres unmarked) [Compound E-3, 2-benzyl-N-(8-fluoro-4-methyl-3-quinolyl)-2-methyl-pent-4-ynamide] |  | ≥ 80 |  |  | 
C=C(Cl)CC(Cc1ccccc1)C(=O)Nc1cnc2c(F)cccc2c1C (centres unmarked) [Compound E-5, 2-benzyl-4-chloro-N-(8-fluoro-4-methyl-3-quinolyl)pent-4-enamide] | ≥ 80 | ≥ 80 |  | 53 to 58 | inhibition of growth at 20 ppm [4]: ≥ 80%
C=C(Cl)CC(Cc1ccccc1)C(=O)Nc1cnc2c(F)cccc2c1 (centres unmarked) [Compound E-6, 2-benzyl-4-chloro-N-(8-fluoro-3-quinolyl)-pent-4-enamide] |  | ≥ 80 | ≥ 80 | 166 to 168 | 
Cc1nc2c(Cl)cccc2cc1NC(=O)C(C)(Cc1ccccc1)CC(C)C (centres unmarked) [Compound E-13, 2-benzyl-N-(8-chloro-2-methyl-3-quinolyl)-2,4-dimethyl-pentanamide] |  |  | ≥ 80 | 99 to 100 | 
Cc1nc2c(Cl)cccc2cc1NC(=O)C(C)(Cc1ccccc1)CC(F)(F)F (centres unmarked) [Compound E-17, 2-benzyl-N-(8-chloro-2-methyl-3-quinolyl)-4,4,4-trifluoro-2-methyl-butanamide] |  |  | ≥ 80 | 47 to 50 | 
C=C(Cl)CC(C)(Cc1ccccc1)C(=O)Nc1cnc2c(F)cccc2c1C (centres unmarked) [Compound E-20, 2-benzyl-4-chloro-N-(8-fluoro-4-methyl-3-quinolyl)-2-methyl-pent-4-enamide] | ≥ 80 |  | ≥ 80 | 124 to 126 | 
C=C(Cl)CC(C)(Cc1ccccc1)C(=O)Nc1cc2cccc(F)c2nc1C (centres unmarked) [Compound E-21, 2-benzyl-4-chloro-N-(8-fluoro-2-methyl-3-quinolyl)-2-methyl-pent-4-enamide] | ≥ 80 |  | ≥ 80 | 121 to 123 | 
C#CCC(C)(Cc1ccccc1)C(=O)Nc1cnc2c(F)cccc2c1 (centres unmarked) [Compound E-26, 2-benzyl-N-(8-fluoro-3-quinolyl)-2-methyl-pent-4-ynamide] |  |  | ≥ 80 | 189 to 191 | 
CCCCC(C)(Cc1ccccc1)C(=O)Nc1cnc2c(F)cccc2c1 (centres unmarked) [Compound E-27, 2-benzyl-N-(8-fluoro-3-quinolyl)-2-methyl-hexanamide] |  |  | ≥ 80 | 135 to 137 | 
CC#CCC(Cc1ccccc1)C(=O)Nc1cnc2c(F)cccc2c1 (centres unmarked) [Compound E-29, 2-benzyl-N-(8-fluoro-3-quinolyl)hex-4-ynamide] |  |  | ≥ 80 | 218 to 220 | 
CC#CCC(C)(Cc1ccccc1)C(=O)Nc1cnc2c(F)cccc2c1 (centres unmarked) [Compound E-30, 2-benzyl-N-(8-fluoro-3-quinolyl)-2-methyl-hex-4-ynamide] |  |  | ≥ 80 | 136 to 138 | 
Cc1c(NC(=O)C(Cc2ccccc2)CC(F)(F)F)cnc2c(F)cccc12 (centres unmarked) [Compound E-45, 2-benzyl-4,4,4-trifluoro-N-(8-fluoro-4-methyl-3-quinolyl)-butanamide] | ≥ 80 |  | ≥ 80 | 165 to 167 | 
Cc1c(NC(=O)C(C)(Cc2ccccc2)CC(F)(F)F)cnc2c(F)cccc12 (centres unmarked) [Compound E-50, 2-benzyl-4,4,4-trifluoro-N-(8-fluoro-4-methyl-3-quinolyl)-2-methyl-butanamide] | ≥ 80 |  | ≥ 80 | 106 to 109 | 
CC(Cc1ccccc1)(CC1CC1)C(=O)Nc1cnc2c(F)cccc2c1 (centres unmarked) [Compound E-76, 2-benzyl-3-cyclopropyl-N-(8-fluoro-3-quinolyl)-2-methyl-propanamide] |  |  | ≥ 80 | 157 to 159 | 
C=CCC(C)(Cc1ccccc1)C(=O)Nc1cnc2c(F)cccc2c1 (centres unmarked) [Compound E-78, 2-benzyl-N-(8-fluoro-3-quinolyl)-2-methyl-pent-4-enamide] | ≥ 80 | ≥ 80 |  | 146 to 149 | 

Structure (SMILES) | pest or weed control at 200 ppm [1] [%] | inhibition of growth at 200 ppm [2] [%] | pest or weed control at 200 ppm [3] [%] | melting point [°C] | further results
Cc1c(NC(=O)C(C)(Cc2ccccc2)CC(C)C)cnc2c(F)cccc12 (centres unmarked) [Compound E-84, 2-benzyl-N-(8-fluoro-4-methyl-3-quinolyl)-2,4-dimethyl-pentanamide] | ≥ 80 | ≥ 80 |  | 73 to 79 | inhibition of growth at 20 ppm [4]: ≥ 80%
CC(C)CC(C)(Cc1ccccc1)C(=O)Nc1cnc2ccccc2c1 (centres unmarked) [Compound E-85, 2-benzyl-2,4-dimethyl-N-(3-quinolyl)pentanamide] |  | ≥ 80 |  | 147 to 148 | 
Cc1nc2c(F)cccc2cc1NC(=O)C(C)(Cc1ccccc1)CC(C)C (centres unmarked) [Compound E-86, 2-benzyl-N-(8-fluoro-2-methyl-3-quinolyl)-2,4-dimethyl-pentanamide] | ≥ 80 | ≥ 80 |  |  | inhibition of growth at 20 ppm [4]: ≥ 80%
C=C(C)CC(Cc1ccccc1)C(=O)Nc1cnc2c(F)cccc2c1 (centres unmarked) [Compound E-94, 2-benzyl-N-(8-fluoro-3-quinolyl)-4-methyl-pent-4-enamide] |  | ≥ 80 |  | 170 to 172 | 
C#CCC(Cc1ccccc1)C(=O)Nc1cnc2c(F)cccc2c1C (centres unmarked) [Compound E-95] |  | ≥ 80 |  |  | 
C=C(C)C[C@@](C)(Cc1ccccc1)C(=O)Nc1cc2cccc(F)c2nc1C [Compound F-1, (2S)-2-benzyl-N-(8-fluoro-2-methyl-3-quinolyl)-2,4-dimethyl-pent-4-enamide] | ≥ 80 |  | ≥ 80 |  | 
C=C(C)C[C@](C)(Cc1ccccc1)C(=O)Nc1cc2cccc(F)c2nc1C [Compound F-2, (2R)-2-benzyl-N-(8-fluoro-2-methyl-3-quinolyl)-2,4-dimethyl-pent-4-enamide] | ≥ 80 |  | ≥ 80 |  | 
C=C(C)C[C@](C)(Cc1ccccc1)C(=O)Nc1cnc2c(F)cccc2c1C [Compound F-6, (2R)-2-benzyl-N-(8-fluoro-4-methyl-3-quinolyl)-2,4-dimethyl-pent-4-enamide] | ≥ 80 |  | ≥ 80 |  | 
CC1(C[C@](C)(Cc2ccccc2)C(=O)Nc2cnc3c(F)cccc3c2)CC1 [Compound F-9, (2R)-2-benzyl-N-(8-fluoro-3-quinolyl)-2-methyl-3-(1-methylcyclopropyl)propanamide] | ≥ 80 |  | ≥ 80 |  | 
Cc1nc2c(F)cccc2cc1NC(=O)[C@](C)(Cc1ccccc1)CC(F)(F)F [Compound F-11, (2R)-2-benzyl-4,4,4-trifluoro-N-(8-fluoro-2-methyl-3-quinolyl)-2-methyl-butanamide] | ≥ 80 |  | ≥ 80 |  | 
Cc1nc2c(F)cccc2cc1NC(=O)[C@@](C)(Cc1ccccc1)CC(F)(F)F [Compound F-12, (2S)-2-benzyl-4,4,4-trifluoro-N-(8-fluoro-2-methyl-3-quinolyl)-2-methyl-butanamide] | ≥ 80 |  | ≥ 80 |  | 
CC(C)C[C@](C)(Cc1ccccc1)C(=O)Nc1cnc2c(F)cccc2c1 [Compound F-19, (2R)-2-benzyl-N-(8-fluoro-3-quinolyl)-2,4-dimethyl-pentanamide] | ≥ 80 | ≥ 80 |  |  | 
CC(C)C[C@@](C)(Cc1ccccc1)C(=O)Nc1cnc2c(F)cccc2c1 [Compound F-20, (2S)-2-benzyl-N-(8-fluoro-3-quinolyl)-2,4-dimethyl-pentanamide] | ≥ 80 | ≥ 80 |  |  | inhibition of growth at 20 ppm [4]: ≥ 80%
C=C(C)C[C@](C)(Cc1ccccc1)C(=O)Nc1cnc2c(F)cccc2c1 [Compound F-22, (2R)-2-benzyl-N-(8-fluoro-3-quinolyl)-2,4-dimethyl-pent-4-enamide] |  | ≥ 80 |  |  | 
C=C(Cl)C[C@@](C)(Cc1ccccc1)C(=O)Nc1cc2cccc(F)c2nc1C [Compound F-43, (2R)-2-benzyl-4-chloro-N-(8-fluoro-2-methyl-3-quinolyl)-2-methyl-pent-4-enamide] | ≥ 80 |  | ≥ 80 |  | inhibition of growth at 200 ppm [5]: ≥ 80%; inhibition of growth at 200 ppm [6]: ≥ 80%
